Laboratory results taken from US7375092B2, “Lunasin peptides” (Regents of the University of California, priority 1997, dated 2008).

B1: large subunit peptide: 77 amino acid (8 kDa) large subunit (alisin) of Gm2S-1, residues 82-158 of SEQ ID NO:2 (protein)
chain: EGKDEDEEEEGHMQKCCTEMSELRSPKCQCKALQKIMENQSEELEEKQKKKMEKELINLATMCRFGPMIQCDLSSDD

How the values were obtained:
[1] = test system: cotyledon and endosperm parynchematous cells; experiment: Plant transformation: mitotic disruption in developing seeds; assay type: in vivo; details: deletion mutant and synthetic fusion peptides
Source text: Cereal endosperm and legume cotyledon make up at least 85% of the seed weight and that seed size is genetically correlated to crop yield by at least 80%. […] To accomplish this, the 5′ regulatory regions of soybean conglycinin gene (a 170 bp DNA sequence element that is 200 nucleotides upstream of the transcription start site conferring cotyledon-specific expression (Chen et al., 1988, EMBO J 7:297) and rice glutelin gene (a 121 bp DNA sequence element that is 437/317 nucleotide upstream of the transcription start site conferring endosperm-specific expression (Yoshihara and Takaiwa, 1996, Plant Cell Physiol 37:107) are inserted into the −90 position of the CaMV 35S promoter which are then fused to the DNA fragments encoding the in-frame translation of lunasin and lunasin-del peptides. The DNA constructs are ligated to the binary vector, pKYLX71 (Lloyd et al., 1992, Science 258:1773) for Agrobacterium transformation and to pGEM-3Zf(+) vector (Promega) for biolistic transformation (Cho et al., 1995, Plant Mol Biol Rept 13:255). Agrobacterium-mediated transformation using the cotyledon-specific DNA constructs is utilized for most dicots, i.e. legumes (soybean, peas, peanuts and kidney beans), Arabidopsis thaliana and tobacco. For monocots like the cereal grain crops, wheat, rice, barley, rye and corn, the biolistic method of transformation is utilized using the endosperm-specific DNA constructs. The expression of the lunasin peptide in the developing seeds of all these plant species are monitored by immunolocalization using antibodies derived specifically to the carboxyl end epitope of the lunasin peptide.

mammalian cells = experiment: Mitotic disruption by peptide panel in mammalian studies; assay type: cell-based; details: deletion mutant and synthetic fusion peptides
Source text: Similar mitotic disruption is observed using a large panel of lunasin and alisin deletion mutant peptides (lunasin-del-n and alisin-del-n) and lunasin/alisin-like synthetic peptides (Gm2S-1-syn-n). Exemplary active lunasin-del peptides in these mammalian studies include (again using N→C nomenclature convention): • lunasin-del-1: MRG—residues 57-64 of SEQ ID NO:2 fusion protein • lunasin-del-2: α-tubulin—residues 54-64 of SEQ ID NO:2 fusion protein • lunasin-del-3: β-tubulin—residues 48-63 of SEQ ID NO:2 fusion protein • lunasin-del-4: MAP2 —residues 26-64 of SEQ ID NO:2 fusion protein • lunasin-del-5: Mapmodulin—residues 57-64 of SEQ ID NO:2 fusion protein • lunasin-del-6: GFP—residues 54-64 of SEQ ID NO:2 fusion protein • lunasin-del-7: MAP4—residues 44-63 of SEQ ID NO:2 fusion protein • lunasin-del-8: FLAGG—residues 30-64 of SEQ ID NO:2 fusion protein • lunasin-del-9: CYCLIN A—residues 57-64 of SEQ ID NO:2 fusion protein • lunasin-del-10: CYCLIN B1—residues 54-64 of SEQ ID NO:2 fusion protein • lunasin-del-11: CYCLIN B2—residues 40-63 of SEQ ID NO:2 fusion protein • lunasin-del-12: CYCLIN B3—residues 34-64 of SEQ ID NO:2 fusion protein • lunasin-del-13: SH2—octa-aspartate fusion protein • lunasin-del-14: SH3—octa-aspartate fusion protein • lunasin-del-15: SEQ ID NO:2, residues 48-55—MRG-octa-aspartate fusion protein • lunasin-del-16: SEQ ID NO:2, residues 48-55—SEQ ID NO:2, residues 48-55—octa-aspartate fusion protein • lunasin-del-17: MRG-tetrta-aspartate-tetra glutamate fusion protein • lunasin-del-18: SEQ ID NO:2, residues 48-55-octa-glutamate fusion protein • lunasin-del-19: SEQ ID NO:2, residues 1-21-MRG-deca-glutamate fusion protein • lunasin-del-20: SEQ ID NO:2, residues 48-55—SEQ ID NO:2, residues 48-55—tetra-aspartate-tetra glutamate fusion protein
Alternatively, the peptides are introduced indirectly by expression within the targeted cell. Such expression may be effected by transciently or by upregulation of a stably introduced peptide-encoding gene.

DH5 E. coli cells = experiment: Expression of Gm2S-1 peptides in bacteria: disruption of bacterial cell division (filamentation); assay type: cell-based; details: basal expression from pFLAG-1 in DH5 E. coli cells
Source text: We sought to produce purified Gm2S-1-derived peptides, including lunasin and alisin peptides, for allergenicity tests using bacterial expression vectors. Initially, PCR amplified fragments that encode lunasin and a lunasin deletion (lunasin-del) mutant (with the 9 aspartic acid deleted from the carboxyl end) were first cloned into pGEM-T (Promega) PCR cloning vector, then cut with EcoR1 and HindIII to release lunasin and lunasin-del gene fragment which were then subcloned into pFLAG-1 bacterial expression vector (Kodak/IBI). Lunasin and lunasin-del pFLAG constructs were used to transform competent DH5 E. coli cells using standard heat shock protocol.
Similar mitotic disruption is observed using a large panel of lunasin and alisin deletion mutant peptides (lunasin-del-n and alisin-del-n) and lunasin/alisin-like synthetic peptides (Gm2S-1-syn-n). […]

Molecule	mitotic disruption, active peptides in plant transformation studies [1]	mitotic disruption, active peptides in mammalian studies (mammalian cells)	formation of elongated and non-septated bacterial filaments (DH5 E. coli cells)
lunasin-del-19: SEQ ID NO:2, residues 1-21—MRG-deca-glutamate fusion protein (MTKFTILLISLLFCIAHTCSA; C-terminal MRG and deca-glutamate)	active	active	–
lunasin-del-18: SEQ ID NO:2, residues 48-55—octa-glutamate fusion protein (MEKIQGRG; C-terminal octa-glutamate)	active	active	–
lunasin-del-15: SEQ ID NO:2, residues 48-55—MRG-octa-aspartate fusion protein (MEKIQGRG; C-terminal MRG and octa-aspartate)	active	active	–
B1	–	–	not detected
